Data reported in patent publication US10905683B2, “Compositions and uses of amidine derivatives” (BIOCRYST PHARMACEUTICALS, INC., priority 2014, dated 2021).
In brackets after ≈: the same amount, converted by molar mass. Like-named read-outs stand apart in the source and are kept apart here.

Key:
[1] = Further solubility studies in solvents, mixtures and surfactants; type: physicochemical; settings: thermodynamic from solid
Description: The solubility of the compound of Example 1 in a range of organic solvents, mixtures thereof, and some including surfactants, was measured. […] solubility assays were performed by the sequential addition of the compound of Example 1 to an appropriate organic solvent while stirring vigorously until a precipitate is formed. The resulting suspension is then shaken for 24 hours at room temperature, filtered and the resulting solution was analyzed by appropriate analytical method. Quantitation was performed by comparison of the concentrations of the resulting solution of the compound 1 to a single point calibration curve using a solution of the reference standard. The results are shown in Table 8, in which all percentages are expressed by weight of the total weight of excipients, i.e. excluding the active and the following abbreviations are used: […]

[2] = Solubility in organic solvents; type: physicochemical
Description: The solubility of the compound of Example 1 in a range of organic solvents was measured. Solubility assays were performed by the sequential addition of the compound of Example 1 to an appropriate organic solvent while stirring vigorously until a precipitate is formed. The resulting suspension is then shaken for 24 hours at room temperature, filtered and the resulting solution was analyzed by appropriate analytical method. Quantitation was performed by comparison of the concentrations of the resulting solution of the compound of Example 1 to a single point calibration curve using a solution of the reference standard.

[3] = Phase 1 Part 2, multiple ascending dose pharmacokinetics (7 days, q8h); type: in vivo, human; settings: for Cmax / AUC(0-t) / Tmax / AUC / half-life / concentration at 8 h: human, plasma, oral; for AUC(0-t): read-out: AUC0-8; for concentration at 8 h: read-out: Ctau
Description: Part 2 of the study evaluated the safety, tolerability, PK, and PD of multiple ascending doses of the compound of Example 1. Twelve subjects were administered a 7-day course of the compound of Example 1 (n=10 subjects/cohort received the API and n=2 subjects/cohort received matching placebo) according to the following dose regimens: 100 mg of the compound of Example 1 or placebo every 8 hours (q8h) in Cohort 1; 200 mg of the compound of Example 1 or placebo q8h in Cohort 2; 400 mg of the compound of Example 1 or placebo q8h in Cohort 3 and 800 mg of the compound of Example 1 or placebo q8h in Cohort 4.
A total of 48 subjects were enrolled in Part 2 of the Study and 47 subjects completed the study. A summary of pharmacokinetic parameters for the compound of Example 1 for the first dose on Day 1 and last dose on Day 7 is presented in Table 17. […] Day 7 geometric mean exposure (AUCtau and Cmax) did increase with increasing dose. Drug exposure was dose proportional through 400 mg three times a day. At 400 mg three times a day, pre-dose geometric mean drug levels and coefficient of variation (CV) on day 7 were 28.6 ng/ml and 77% and post-dose geometric mean maximum drug levels and CV were 152 ng/ml and 57%. Plasma concentrations of the compound of Example 1 over 25 ng/ml are expected to be efficacious in treating conditions such as, but not limited to, HAE and AAE.

[4] = 400 mg three times a day, day 7
[5] = 100 mg, Day 1, 100 mg q 8 h, GM
[6] = 100 mg, Day 1, 100 mg q 8 h, Median
[7] = 100 mg, Day 7, 100 mg q 8 h, GM
[8] = 100 mg, Day 7, 100 mg q 8 h, Median
[9] = 200 mg, Day 1, 200 mg q 8 h, GM
[10] = 200 mg, Day 1, 200 mg q 8 h, Median
[11] = 200 mg, Day 7, 200 mg q 8 h, GM
[12] = 200 mg, Day 7, 200 mg q 8 h, Median
[13] = 400 mg, Day 1, 400 mg q 8 h, GM
[14] = 400 mg, Day 1, 400 mg q 8 h, Median
[15] = 400 mg, Day 7, 400 mg q 8 h, GM
[16] = 400 mg, Day 7, 400 mg q 8 h, Median
[17] = 800 mg, Day 1, 800 mg q 8 h, GM
[18] = 800 mg, Day 1, 800 mg q 8 h, Median
[19] = 800 mg, Day 7, 800 mg q 8 h, GM
[20] = 800 mg, Day 7, 800 mg q 8 h, Median

C=Cc1cc(C(=O)Nc2ccc(C(=N)N)cc2)c(-c2ccc(C(=O)NCC3CC3)nc2C(=O)O)cc1OC [Example 1, 3-[2-(4-carbamimidoyl-phenylcarbamoyl)-5-methoxy-4-vinyl-phenyl]-6-(cyclopropylmethyl-carbamoyl)-pyridine-2-carboxylic acid]
solubility at 24 h ([1]; 2.5% SLS in 97.5% PEG400, organic solvent or mixture, 2.5% SLS in 97.5% PEG400, read-out: Example 1 Solubility After 24 hrs): 31.3 mg/mL (≈ 60.9 mM) | solubility at 24 h ([1]; 2.5% SLS in 97.5% PEG600, organic solvent or mixture, 2.5% SLS in 97.5% PEG600, read-out: Example 1 Solubility After 24 hrs): 25.9 mg/mL (≈ 50.4 mM) | solubility at 24 h ([1]; 2.5% SLS in 97.5% PG, organic solvent or mixture, 2.5% SLS in 97.5% PG, read-out: Example 1 Solubility After 24 hrs): > 100 mg/mL | solubility at 24 h ([1]; 2.5% SLS/8% EtOH/10% PG in 79.5% PEG600, organic solvent or mixture, 2.5% SLS/8% EtOH/10% PG in 79.5% PEG600, read-out: Example 1 Solubility After 24 hrs): 57.3 mg/mL (≈ 112 mM) | solubility at 24 h ([1]; 6% EtOH/15% glycerin/79% water containing 0.3% Tween80, aqueous with cosolvent or surfactant or cyclodextrin, 6% EtOH/15% glycerin/79% water containing 0.3% Tween80, read-out: Example 1 Solubility After 24 hrs): 0.3 mg/mL (≈ 0.584 mM) | solubility at 24 h ([1]; 6% EtOH/15% glycerin/79% water, aqueous with cosolvent or surfactant or cyclodextrin, 6% EtOH/15% glycerin/79% water, read-out: Example 1 Solubility After 24 hrs): 0.07 mg/mL (≈ 0.136 mM) | solubility at 24 h ([1]; 8% EtOH/10% PG in 82% PEG600, organic solvent or mixture, 8% EtOH/10% PG in 82% PEG600, read-out: Example 1 Solubility After 24 hrs): 61 mg/mL (≈ 119 mM) | solubility at 24 h ([1]; 10% EtOH in 90% PEG400, organic solvent or mixture, 10% EtOH in 90% PEG400, read-out: Example 1 Solubility After 24 hrs): 61.4 mg/mL (≈ 120 mM) | solubility at 24 h ([1]; 10% EtOH in 90% PEG600, organic solvent or mixture, 10% EtOH in 90% PEG600, read-out: Example 1 Solubility After 24 hrs): 61.4 mg/mL (≈ 120 mM) | solubility at 24 h ([1]; 10% EtOH with 90% PG, organic solvent or mixture, 10% EtOH with 90% PG, read-out: Example 1 Solubility After 24 hrs): > 100 mg/mL | solubility at 24 h ([1]; 20% PG in 80% PEG400, organic solvent or mixture, 20% PG in 80% PEG400, read-out: Example 1 Solubility After 24 hrs): 52.9 mg/mL (≈ 103 mM) | solubility at 24 h ([1]; 20% PG in 80% PEG600, organic solvent or mixture, 20% PG in 80% PEG600, read-out: Example 1 Solubility After 24 hrs): 52.4 mg/mL (≈ 102 mM) | solubility at 24 h ([1]; PG/PEG mixtures, organic solvent or mixture, some PG/PEG mixtures, read-out: solubility): 50 to 60 mg/mL (≈ 97.4 to 117 mM) | solubility at 24 h ([1]; mixtures of 90% or more propylene glycol, organic solvent or mixture, some mixtures composed of 90% or more propylene glycol, read-out: solubility): > 100 mg/mL | solubility at 24 h ([1]; propylene glycol, organic solvent or mixture, Propylene Glycol, read-out: Example 1 Solubility After 24 hrs): > 150 mg/mL | solubility at 24 h ([1]; propylene glycol, organic solvent or mixture, propylene glycol (PG), read-out: solubility): 150 mg/mL (≈ 292 mM) | Saturated concentration of Example 1 ([2]; Dimethyl acetamide, 40% solvent in water): 12.9 mg/mL | Saturated concentration of Example 1 ([2]; Dimethyl acetamide, 60% solvent in water): 24.8 mg/mL | Saturated concentration of Example 1 ([2]; Ethanol, 40% solvent in water): 5.9 mg/mL | Saturated concentration of Example 1 ([2]; Ethanol, 60% solvent in water): 21.8 mg/mL | Saturated concentration of Example 1 ([2]; Ethanol, 100%): 23.9 mg/mL | Saturated concentration of Example 1 ([2]; Glycerol, 100%): 5.5 mg/mL | Saturated concentration of Example 1 ([2]; N-Methyl-2-pyrrolidone, 100%, not saturated): >11 (not saturated) mg/mL | Saturated concentration of Example 1 ([2]; Polyethylene glycol 400, 40% solvent in water): 11.9 mg/mL | Saturated concentration of Example 1 ([2]; Polyethylene glycol 400, 60% solvent in water): 18.6 mg/mL | Saturated concentration of Example 1 ([2]; Polyethylene glycol 400, 100%): 21.2 mg/mL | Saturated concentration of Example 1 ([2]; Propylene glycol, 40% solvent in water): 2.67 mg/mL | Saturated concentration of Example 1 ([2]; Propylene glycol, 60% solvent in water): 27.9 mg/mL | Saturated concentration of Example 1 ([2]; Propylene glycol, 100%): >55 mg/mL | post-dose geometric mean maximum drug level [3, 4]: 152 ng/mL | pre-dose geometric mean drug level [3, 4]: 28.6 ng/mL | accumulation in Cmax and AUC after repeated dosing compared to first day ([3]; 7 days q8h): approximately 30% | Ctau ([3]; Day 7, 100 mg q 8 h, GM): 8.34 ng/mL | DN AUCtau ([3]; Day 7, 100 mg q 8 h, GM): 2.37 ng·h/mL/mg | Ctau ([3]; Day 7, 100 mg q 8 h, Median): 7.92 ng/mL | DN AUCtau ([3]; Day 7, 200 mg q 8 h, GM): 1.58 ng·h/mL/mg | DN AUCtau ([3]; Day 7, 400 mg q 8 h, GM): 1.34 ng·h/mL/mg | Ctau ([3]; Day 7, 800 mg q 8 h, GM): 23.7 ng/mL | DN AUCtau ([3]; Day 7, 800 mg q 8 h, GM): 0.847 ng·h/mL/mg | Ctau ([3]; Day 7, 800 mg q 8 h, Median): 30.3 ng/mL | time of maximal concentrations postdose ([3]; across dosing days and cohorts): approximately 2 hours | Cmax [3, 5]: 54.5 ng/mL | AUC(0-t) [3, 5]: 173 ng·h/mL | Cmax [3, 6]: 49.4 ng/mL | Tmax [3, 6]: 1 h | AUC(0-t) [3, 6]: 185 ng·h/mL | AUC [3, 7]: 237 ng·h/mL | Cmax [3, 7]: 72.6 ng/mL | half-life ([3]; 100 mg, Day 7, 100 mg q 8 h, GM, read-out: t1/2 (converted)): 12.4 h | AUC [3, 8]: 246 ng·h/mL | Cmax [3, 8]: 71.2 ng/mL | Tmax [3, 8]: 2 h | half-life ([3]; 100 mg, Day 7, 100 mg q 8 h, Median, read-out: t1/2 (converted)): 11.5 h | Cmax [3, 9]: 72 ng/mL | AUC(0-t) [3, 9]: 236 ng·h/mL | Cmax [3, 10]: 89.7 ng/mL | Tmax [3, 10]: 2 h | AUC(0-t) [3, 10]: 251 ng·h/mL | AUC [3, 11]: 316 ng·h/mL | Cmax [3, 11]: 83.6 ng/mL | concentration at 8 h [3, 11]: 12.9 ng/mL | half-life ([3]; 200 mg, Day 7, 200 mg q 8 h, GM, read-out: t1/2 (converted)): 12.6 h | AUC [3, 12]: 385 ng·h/mL | Cmax [3, 12]: 92.3 ng/mL | Tmax [3, 12]: 2 h | concentration at 8 h [3, 12]: 13 ng/mL | half-life ([3]; 200 mg, Day 7, 200 mg q 8 h, Median, read-out: t1/2 (converted)): 13.5 h | Cmax [3, 13]: 119 ng/mL | AUC(0-t) [3, 13]: 421 ng·h/mL | Cmax [3, 14]: 124 ng/mL | Tmax [3, 14]: 2 h | AUC(0-t) [3, 14]: 395 ng·h/mL | AUC [3, 15]: 534 ng·h/mL | Cmax [3, 15]: 152 ng/mL | concentration at 8 h [3, 15]: 17.4 ng/mL | half-life ([3]; 400 mg, Day 7, 400 mg q 8 h, GM, read-out: t1/2 (converted)): 13 h | AUC [3, 16]: 463 ng·h/mL | Cmax [3, 16]: 129 ng/mL | Tmax [3, 16]: 2 h | concentration at 8 h [3, 16]: 14.6 ng/mL | half-life ([3]; 400 mg, Day 7, 400 mg q 8 h, Median, read-out: t1/2 (converted)): 12.7 h | Cmax [3, 17]: 143 ng/mL | AUC(0-t) [3, 17]: 504 ng·h/mL | Cmax [3, 18]: 153 ng/mL | Tmax [3, 18]: 2 h | AUC(0-t) [3, 18]: 581 ng·h/mL | AUC [3, 19]: 678 ng·h/mL | Cmax [3, 19]: 187 ng/mL | half-life ([3]; 800 mg, Day 7, 800 mg q 8 h, GM, read-out: t1/2 (converted)): 7.46 h | AUC [3, 20]: 835 ng·h/mL | Cmax [3, 20]: 240 ng/mL | Tmax [3, 20]: 2 h | half-life ([3]; 800 mg, Day 7, 800 mg q 8 h, Median, read-out: t1/2 (converted)): 8.03 h | half-life ([3]; calculated over a 24 hour period, read-out: terminal elimination half-life (converted)): ~10 h
